Tested on: WistarF/Han (WF) rats
Experiment: 1h food intake with Y1R antagonist pre-treatment (Example 4)
Format: in vivo
Details: i.c.v., isoleucyl thiazolidine 50nmol, Fig. 11
Description: Animals. Male WistarF/Han (WF) rats (Central Animal Laboratory, Hannover Medical School, Hannover, Germany, see http://www.mh-hannover.de/institut/tierlabor/wf.htm for details), weighing 330±31 g±SD, were housed in a sound-proof, temperature controlled (24.0±0.5°C) room under specific pathogen free conditions with a 12/12h dark/light cycle (lights on at 07.00 with illumination level of 80 Lux). Food (Altromin lab chow pellets) and tap water were available ad libitum. Under ketamine/xylasine (100/5 mg/kg, i.p.) anesthesia, the rats were fixed in a Kopf stereotaxic frame and implanted with cannulae (Plastic One, Inc., Roanoke, VA, USA) above the lateral ventricle. All research and animal care procedures were approved by the Lower Saxony district government (Hannover, Germany) and followed principles described in the European Community's Council Directive of 24 November 1986 (86/609/EEC).
Surgery and i.c.v. application. For surgery, rats were anesthetized and prepared with i.c.v. cannulae (coordinates: A:-0.7mm caudal, L:1.4mm lateral to bregma; and V3.2mm ventral to the skull surface; tooth bar +3.0 above ear bars) using standard stereotaxic procedures as described in detail elsewhere (von Hörsten et al., 1998a,b,c). After a 7-day recovery period, successful ventricle cannulation was confirmed by an angiotensin drinking response (von Hörsten et al., 1998a). Rats showing a positive drinking response (n=56) were then habituated to experimental handling by daily sham injections for seven days.
Animals were randomly divided into eight experimental groups (n=6-8/group), which completed one SI test of anxiety: (1) aCSF+aCSF+aCSF; (2) BIBP+aCSF+aCSF; (3) aCSF+isoleucyl thiazolidine+aCSF; (4) BIBP+isoleucyl thiazolidine+aCSF; (5) aCSF+aCSF+NPY; (6) BIBP+aCSF+NPY; (7) aCSF+P32/89+NPY; (8) BIBP+isoleucyl thiazolidine+NPY. Animals in each group were treated in an identical way in each phase, receiving i.c.v. injections -60mins and -55min before behavioral testing. Experiments spanned two nights with groups counterbalances on both dark cycles. The injection cannula was attached to a Hamilton microsyringe with approximately 30cm of polyethylene tubing and all compounds were infused in a total volume of 5.0µl at a rate of 5.0 µl/min using a TSE multichannel infusion pump (Bad Homburg, Germany). The time spent in active social interaction (SI-time), 1h, and 12h food-intake were measured.
Peptides and Antagonist. Rat neuropeptide Y1-36 was obtained from Polypeptide Laboratories (Wolfenbüttel, Germany). The NPY Y1 receptor antagonist BIBP3226 was purchased from American Peptide Company, Sunnyvale, CA, USA (Cat#:60-1-22B). […]
Statistical analysis. Data obtained from the measures SI time and 1h food intake were analyzed by one-way (factor: "treatment") ANOVA. […]

## CCC(C)C(N)C(=O)N1CCSC1 (centres unmarked) [isoleucyl thiazolidine]
BIBP3226 100nmol pre-treatment, NPY 0.8nmol
  1h feeding under Y1R blockade: blocked
Without antagonist
  1h food-intake: non-significant slight increase

From patent publication EP1891948A1, “Treatment of neurological and neuropsychological disorders” (Probiodrug AG, priority 2000, dated 2002)
